The structures appear in SMILES notation.

In general, IC50 refers to the midpoint of a concentration-inhibition curve. Usually inhibition stands for the change of the read-out against control, counted positive when it falls.

The test addresses T1, CCR4 (Homo sapiens, UniProt P51679).
T1 construct: expressed in transfected cells; host or cells: CHO-K1
T1 sequence (P51679 1-360): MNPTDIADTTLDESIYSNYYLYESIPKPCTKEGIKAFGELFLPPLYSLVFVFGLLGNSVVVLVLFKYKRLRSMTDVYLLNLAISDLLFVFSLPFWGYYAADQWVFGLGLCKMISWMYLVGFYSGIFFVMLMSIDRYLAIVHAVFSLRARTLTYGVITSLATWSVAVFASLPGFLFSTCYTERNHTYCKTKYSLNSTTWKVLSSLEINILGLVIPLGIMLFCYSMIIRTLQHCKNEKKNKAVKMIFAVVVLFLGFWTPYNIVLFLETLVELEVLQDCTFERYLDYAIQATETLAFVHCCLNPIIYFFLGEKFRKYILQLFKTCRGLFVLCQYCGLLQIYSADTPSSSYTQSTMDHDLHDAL
The experiment in a line: β-Arrestin recruitment assay (CHO-K1 CCR4 β-Arrestin cells stimulated with recombinant human CCL22). It counts as cell-based. The settings on record: CCL22 10 nM stimulation; for IC50: read-out: CCR4 antagonistic activity IC50 (μM) in range; for inhibition: CHO-K1, read-out: % inhibition 30 μM (% E-Max), read-out: % inhibition at 5 μM/30 μM (% E-Max). The procedure: CHO-K1 CCR4 β-Arrestin cells were seeded and incubated overnight at 37° C. in a CO2 incubator for adherence. Next day, cells were pretreated with various concentrations of CCR4 modulators for 30 mins at 37° C. The cells were stimulated with recombinant human CCL22 (10 nM) and further incubated for 90 mins. Working detection solution was added and incubated at room temperature for 1 hour after which the chemiluminescent signal was read using a luminometer.
Exemplary compounds of the present application were screened by the above-mentioned assay and the results were tabulated.
A general note: Recruitment of arrestin is a read-out of receptor activation apart from second messengers.

With `Cc1cc2nc(N3CC([C@H]4CCCN([C@H]5C[C@](C)(C(=O)O)C5)C4)C3)oc2c(N[C@H](C)c2ccc(Cl)cc2Cl)c1Cl` [Compound 9], the 50% inhibitory concentration (IC50) is below 0.25 µM and the inhibition worked out at 103%. In the case of `C[C@@H](Nc1c(F)ccc2nc(N3CC([C@H]4CCCN([C@H]5C[C@](C)(C(=O)O)C5)C4)C3)sc12)c1ncc(Cl)cc1Cl` [Compound 37, (1R,3r)-3-((R)-3-(1-(7-(((S)-1-(3,5-dichloropyridin-2-yl)ethyl)amino)-6-fluorobenzo[d]thiazol-2-yl)azetidin-3-yl)piperidin-1-yl)-1-methylcyclobutane-1-carboxylic acid], the IC50 was above 0.5 µM. For the setting “at 5 μM”, the “% inhibition at 5 μM/30 μM (% E-Max)” value worked out at 78% at 5 μM. `C[C@@H](Nc1c(F)ccc2nc(N3CC([C@H]4CCCN([C@H]5C[C@](C)(C(=O)O)C5)C4)C3)sc12)c1ccc(F)cc1F` [Compound 29]: the concentration for half-maximal inhibition (IC50) was below 0.25 µM and the inhibition amounted to 103%. Regarding `Cc1nc(N[C@H](C)c2ccc(Cl)cc2Cl)c2sc(N3CC([C@H]4CCCN([C@H]5C[C@](C)(C(=O)O)C5)C4)C3)nc2n1` [Compound 33], the IC50 was below 0.25 µM and the inhibition was determined as 103%. As to `C[C@H](Nc1c(F)cnc2nc(N3CC([C@H]4CCCN([C@H]5C[C@](C)(C(=O)O)C5)C4)C3)sc12)c1ncc(Cl)cc1Cl` (single isomer, unassigned) [Compound 43], the IC50 was above 0.5 µM and the inhibition stood at 95%. `C[C@@H](Nc1c(OC(F)F)ccc2nc(N3CC([C@H]4CCCN([C@H]5C[C@](C)(C(=O)O)C5)C4)C3)sc12)c1ncc(Cl)cc1Cl` [Compound 48]: the inhibition amounted to 52%. For `C[C@@H](Nc1c(F)ccc2nc(N3CC([C@H]4CCCN([C@H]5C[C@](C)(C(=O)O)C5)C4)C3)sc12)c1ccc(Cl)cc1Cl` [Compound 25], the IC50 was below 0.25 µM and the inhibition was found to be 101%. On the same counts, the results for `CC(Nc1c(OC(F)F)ccc2nc(N3CC([C@H]4CCCN([C@H]5C[C@](C)(C(=O)O)C5)C4)C3)sc12)c1ncc(Cl)cc1Cl` (stereo partly shown) [Compound 47] are above 0.5 µM and 93%. With `C[C@@H](Nc1c(Cl)ccc2nc(N3CC([C@H]4CCCN(C5(CC(=O)O)CCC5)C4)C3)oc12)c1ccc(Cl)cc1Cl` [Compound 24], the inhibition was determined as 61%. Take `C[C@H](Nc1c(F)ccc2nc(N3CC([C@H]4CCCN([C@H]5C[C@](C)(C(=O)O)C5)C4)C3)sc12)c1ncc(F)cc1F` [Compound 40]: the IC50 was in the range of 0.25 to 0.5 µM and the inhibition stood at 84%. `C[C@@H](Nc1c(C(=O)N(C)C)ccc2nc(N3CC([C@H]4CCCN([C@H]5C[C@](C)(C(=O)O)C5)C4)C3)oc12)c1ccc(Cl)cc1Cl` [Compound 20]: the inhibition stood at 41.5%. In the case of `C[C@@H](Nc1ccnc2nc(N3CC([C@H]4CCCN([C@H]5C[C@](C)(C(=O)O)C5)C4)C3)oc12)c1ccc(Cl)cc1Cl` [Compound 16], the IC50 was below 0.25 µM and the inhibition was found to be 103%.

Take `C[C@@H](Nc1cncc2nc(N3CC([C@H]4CCCN([C@H]5C[C@](C)(C(=O)O)C5)C4)C3)oc12)c1ccc(Cl)cc1Cl` [Compound 15]: the IC50 was in the range of 0.25 to 0.5 µM and the inhibition turned out to be 101%. On the same counts, the results for `C[C@@H](Nc1nccc2nc(N3CC([C@H]4CCCN([C@H]5C[C@](C)(C(=O)O)C5)C4)C3)oc12)c1ccc(Cl)cc1Cl` [Compound 14] are 0.25 to 0.5 µM and 96.4%. For the compound `C[C@@H](Nc1cccc2nc(N3CC([C@H]4CCCN([C@H]5C[C@](C)(C(=O)O)C5)C4)C3)sc12)c1ccc(Cl)cc1Cl` [Compound 8], the IC50 is 0.25 to 0.5 µM and the inhibition worked out at 102%. On the same counts, the results for `CC(Nc1c(F)cnc2nc(N3CC([C@H]4CCCN([C@H]5C[C@](C)(C(=O)O)C5)C4)C3)sc12)c1ncc(F)cc1F` (stereo partly shown) [Compound 44] are 0.25 to 0.5 µM and 99%. On the same counts, the results for `C[C@@H](Nc1nc(C(F)(F)F)nc2nc(N3CC([C@H]4CCCN([C@H]5C[C@](C)(C(=O)O)C5)C4)C3)sc12)c1ccc(Cl)cc1Cl` [Compound 34] are 0.25 to 0.5 µM and 102%.

For the origin of these results see patent US20260284028A1, “FUSED BICYCLIC HETEROCYCLYL COMPOUNDS AS CCR4 MODULATORS” (AURIGENE ONCOLOGY LIMITED, priority 2023, published 2026).
